Structure (SMILES)	melting point [°C]
O=C(Nc1ccccc1C(=O)O)c1ccccc1Br	201 to 203
COc1cc(OC)c2ncc(C(=O)O)c(O)c2c1	299 to 301
CCC1(C)CCNC(=O)CC1 (stereo not given)	76 to 78
Cc1cc2occ(CC(=O)O)c2cc1C(C)C	141 to 143
Cc1cccc(OCCNc2ccc(F)cc2N)c1	76 to 78
O=C1CCCc2nc(-c3ccncc3)sc21	159 to 161
CCOc1cc(C(=O)O)ccc1OCc1ccncc1	238 to 240
NC(=O)N1CCN2C(=O)NC(=O)C2C1 (stereo not given)	250 to 252
C#CCn1c(C)nc2ccccc21	67 to 69
COc1ccc(NC#N)cc1Cl	95 to 97
CC(=O)N1CCC(C)(C(=O)O)C1 (stereo not given)	120 to 122
Cc1ccc(C)c(C(=O)CCl)c1	28 to 30
O=c1cc2c(n[nH]1)CCCC2	192 to 194
O=C1OC(C=Cc2ccccc2)=NC1=Cc1cccnc1	165 to 167
COc1ccc(-c2nc(CN)cs2)cc1	67 to 69
O=C(O)CCn1cccn1	76 to 78
CC1CCCN1CC(=O)O (stereo not given)	167 to 169
C#CCNC(=O)c1ccc(Cl)nc1	139 to 141
O=C(O)c1nc(-c2ccccc2)oc1-c1ccccc1	193 to 195
COc1ccc(Cl)cc1CCl	44 to 46
NC(=O)C1CCCN(c2ccc(C(=O)O)cc2)C1 (stereo not given)	259 to 261
CC(=O)c1ccc(-c2ccncc2)cc1	93 to 95

Structure (SMILES)	melting point [°C]
[N-]=[N+]=NCCN1C(=O)C(=O)c2ccccc21	71 to 73
NC(=O)C1(N2CCNCC2)CCCC1	138 to 140
NCCNC(CC(=O)O)C(N)=O (stereo not given)	161 to 163
O=S1(=O)CCC(Cl)CC1	129 to 131
FC(F)n1ccnc1COc1ccc(Br)cc1	61 to 63
COCc1ccc(CNC(=O)CCl)cc1	83 to 85
O=[N+]([O-])c1cccc(-c2cnc(CCCl)o2)c1	73 to 75
O=C(O)c1cscn1	195 to 197
CC1=C(C#N)CCC(=O)N1	201 to 203
CCn1c(S)nnc1-c1ccccc1OC	171 to 173
Cc1cccc2c(CC#N)c[nH]c12	109 to 111
O=C(O)c1cccc(OC2CCCC2)c1	79 to 81
CN(C(=O)c1ccncc1)c1ccc(C#N)cc1	105 to 107
CS(=O)(=O)N1CCCC1C#N (stereo not given)	62 to 64
N#CCN1CCN(c2ncccn2)CC1	99 to 101
O=C(O)c1cc(S(=O)(=O)N2CCOCC2)c(Cl)cc1Cl	183 to 185
COc1ccnc(N)c1	99 to 101
Nc1ccc2[nH]nc(N)c2c1	157 to 159
O=C(O)C1CSCN1C(=O)c1ccc(Cl)cc1 (stereo not given)	60 to 62
NNc1ncnc2sccc12	211 to 213
O=C(O)/C(=C\c1cccc(Cl)c1)c1cccs1	192 to 194
OC1CC(c2ccc(Br)cc2)C1 (stereo not given)	59 to 61

Structure (SMILES)	melting point [°C]
O=Cc1cn(Cc2ccccc2)nc1-c1cccs1	90 to 91
OC1CCN(c2ccc(Cl)nn2)CC1	109 to 111
CCN(CC)S(=O)(=O)c1ccc2nc(CCl)[nH]c2c1	93 to 95
O=C(O)C(Cc1ccccc1)n1cnnn1 (stereo not given)	162 to 164
Cc1ccc(NC(=O)C(=O)NN)cc1C	182 to 184
CC(C)(C)c1ccc(C(C)(C)N)cc1	75 to 77
O=C(O)CCNc1ccccc1	56 to 60
Fc1cc(F)c2cccnc2c1	76 to 78
Cc1oc(-c2cccs2)nc1CC(=O)O	185 to 187
CN1CCc2nc3ccccc3c(C(=O)O)c2C1	254 to 256
NCc1ccccc1NS(=O)(=O)c1ccccc1	188 to 190
Cn1cnc([N+](=O)[O-])c1CCl	127 to 129
CNc1nc(C(=O)O)cs1	204 to 206
Cn1c(Cl)cnc1CC(N)=S	142 to 144
Clc1sc2ccccc2c1Cl	53 to 55
OC(c1ccccc1)(c1ccc(F)cc1)c1ccc(F)cc1	86 to 88
CN(C)S(=O)(=O)c1cc(C(=O)O)n(C)c1	159 to 161
Nc1nnc(-c2ccncc2)[nH]1	271 to 273
Nc1ccc(CCCC(=O)O)cc1	121 to 124
Cc1ccccc1-c1nonc1N	88 to 90
CC(C)(C(=O)O)C1CCCCC1	64 to 66
Cc1cccc(NC(=O)C2CCNCC2)n1	175 to 177

Structure (SMILES)	melting point [°C]
CN(C)S(=O)(=O)c1cccc(-c2nnc(S)n2N)c1	200 to 202
N#CCC(=O)c1c(Cl)cccc1Cl	63 to 65
COc1ccc(CNc2ccncn2)cc1OC	124 to 126
COc1ccc(Br)cc1Cc1nnn[nH]1	180 to 182
COc1ccc(S(=O)(=O)Cl)c(OC)c1C(=O)O	129 to 131
O=C(O)CN(Cc1ccco1)c1cccc(Cl)c1	115 to 117
CN(C)c1nccc(C=O)n1	50 to 52
CSCCC(C(=O)O)N1C(=O)C2CCCCC2C1=O (stereo not given)	268 to 270
O=C(O)c1ccc(Oc2ccc(Oc3ccccc3)cc2)nc1	152 to 154
NC(=O)CCSc1ccccc1F	84 to 86
Cc1c(NC(C)C(C)C)cccc1C(=O)O (stereo not given)	90 to 92
Nc1ncc(Cc2cccc(Cl)c2)s1	99 to 101
N#CCc1cn(-c2ccccc2)nc1-c1ccc(Cl)cc1	126 to 128
Cc1ccc(CN2CC(C(=O)O)CC2=O)cc1 (stereo not given)	152 to 156
O=C1CCOc2c(Cl)ccc(Cl)c21	67 to 69
COc1ccc(CNC(=O)C(C#N)=CN(C)C)cc1	128 to 130
CCN(CC)S(=O)(=O)c1ccc(C(=O)CBr)cc1	79 to 81
COc1cccc(Cn2c(N)nc3ccccc32)c1	145 to 147
O=C(c1cn[nH]c1)N1CCN(c2ccccn2)CC1	194 to 196
CC(N)c1ccc2[nH]c(=O)[nH]c2c1 (stereo not given)	394 to 396
CNC(=O)NC(=O)CCl	155 to 157

Continued, values first:

melting point [°C]	Structure (SMILES)
195 to 197	O=C(O)C=Cc1cc(Cl)ccc1OCc1ccccc1Cl
218 to 220	COc1ccc(-c2nnc(S)n2C(C)C)cc1
147 to 149	NC(=O)Cc1noc2ccccc12
129 to 131	CN(c1ccc(O)cc1)S(C)(=O)=O
170 to 172	Fc1ccccc1Nc1nnc(S)s1
202 to 204	NC(=O)c1ccc(S(N)(=O)=O)c(N)c1
122 to 124	O=C(O)CCC(=O)c1ccc2c(c1)CCCC2
95 to 97	Cc1cccc(NS(=O)(=O)c2ccc(C)c(N)c2)c1
147 to 149	CC1(C)NC(=O)N(CCOc2ccc(N)cc2)C1=O
77 to 79	CCc1noc(-c2ccc(C)c(N)c2)n1
132 to 134	O=C1CCNc2ccccc2N1
135 to 137	CC(Cl)C(=O)N1c2ccccc2CC1C (stereo not given)
232 to 234	Cc1nc2sccn2c1C(N)=S
189 to 191	CC(C)CSc1ccc([N+](=O)[O-])cc1C(=O)O
289 to 291	O=C(O)c1ccc(S(=O)(=O)Nc2nccs2)cc1
147 to 149	c1ccc(CNc2nc3ccccc3[nH]2)cc1
208 to 210	Cn1cc(NC(=O)OCC(F)(F)F)ccc1=O
161 to 163	Cc1cc(F)cc(C(=O)O)c1[N+](=O)[O-]
256 to 258	O=C(O)C=Cc1ccnc2ccccc12
54 to 56	O=C(O)C1CCc2ccccc21 (stereo not given)

melting point [°C]	Structure (SMILES)
167 to 169	Cn1c(=O)c2c(ncn2CCCC(=O)O)n(C)c1=O
179 to 181	OCc1nc2cc(Br)ccc2[nH]1
159 to 161	S=c1cc[nH]c2ccccc12
69 to 71	CC1CC(C(=O)O)CCC1=O (stereo not given)
147 to 149	COCCN(CCOC)S(=O)(=O)c1ccc(C(=O)O)cc1
168 to 170	O=C(O)Cc1cc(=O)n(C2CCS(=O)(=O)C2)[nH]1 (stereo not given)
260 to 262	Cc1ccc2[nH]c(=O)n3nc(C4CC4)nc3c2c1
170 to 172	CCOC(=O)Nc1ccc(C(=O)O)cc1
174 to 176	O=C(O)c1cc(C(F)(F)F)ccc1SC1CCCC1
91 to 93	Cc1nc(Cl)c2c3c(sc2n1)CCC3
161 to 163	CN(C)C(=O)c1ccccc1O
81 to 83	Cc1cccnc1NC1CCCCC1
54 to 56	CN(C)S(=O)(=O)c1ccc(CCl)o1
253 to 255	O=C(Nc1cc(F)ccc1C(=O)O)c1ccoc1
50 to 52	COCCNC(=O)Cc1ccc(N)cc1
113 to 115	CC(Oc1ccc(Br)cc1F)C(=O)O (stereo not given)
115 to 117	O=C(Nc1ccc(F)cc1)C1CCc2ccccc2N1 (stereo not given)
170 to 174	O=C(O)c1ccc(Oc2ccc(F)cc2)cc1
104 to 106	O=C1CCC(Cc2ccc(O)cc2)O1 (stereo not given)
247 to 249	Cc1ccc(-c2ccc(C(=O)O)c(F)c2)cc1

melting point [°C]	Structure (SMILES)
152 to 154	CSc1nc(C)cc(C(=O)O)n1
121 to 123	O=C(O)C1C2CC3CC(C2)CC1C3 (stereo not given)
92 to 94	CCOC(=O)c1cccnc1S(N)(=O)=O
170 to 172	Cc1n[nH]c(C)c1CC(C)C(=O)O (stereo not given)
81 to 83	Cc1nc(Cl)nc(N(C)C)n1
148 to 150	COc1cc(Cl)c(Cl)cc1C(=O)O
49 to 51	CCC(Oc1ccccc1C)C(=O)O (stereo not given)
135 to 137	O=c1cc(CCl)c2ccc(O)cc2o1
70 to 72	COC(=O)CC(=O)c1ccncc1
222 to 224	Cc1cc(Br)cc2cc(C(=O)O)oc12
142 to 144	Nc1nnc(CCOc2ccccc2)o1
129 to 131	Fc1c(Cl)ccc2c(Cl)ccnc12
156 to 158	O=C(O)c1ccc(SC2CC2)cc1
124 to 126	Cc1nn(-c2ccc(F)cc2)c(Cl)c1C=O
298 to 300	CN(C)c1ccc(/C=C/c2cc(C(=O)O)c3cc(Br)ccc3n2)cc1
112 to 114	Cn1cccc(N)c1=O
134 to 136	Cn1[nH]c2c(c1=N)CCC2
74 to 76	CC(C)(C)OC(=O)N1CCCC(COCC(=O)O)C1 (stereo not given)
